By ED50 is commonly meant the midpoint of the dose-response relation. A lower ED50 goes with greater potency.

Where two headings read alike, the source gives them in different places.

The text below walks through data of patent publication US4613590A, “Amino D-manno-2-octulopyranosidonate containing compounds, pharmaceutical compositions and method of use” (Abbott Laboratories, priority 1985, dated 1986).

The target in one assay is CMP-KDO synthetase (Escherichia coli, UniProt P04951). Description: Inhibition of CMP-KDO synthetase activity (colorimetric phosphate). The assay is classed as biochemical, gram-negative bacteria. The protocol:
The inhibition of CMP-KDO synthetase activity was measured in reaction mixtures buffered at pH 9.5 containing: 2 mM KDO, 5 mM magnesium cytidine triphosphate, and inorganic pyrophosphatase. The pyrophosphate generated during the course of enzyme reaction was cleaved by the pyrophosphatase to inorganic orthophosphate, the level of which was measured colorimetrically. […] Potency was assessed by determining the level of inhibitor required to inhibit the enzyme reaction by 50% under the conditions of the assay described above (I50). A potent inhibitor is defined as one having an I50 of 1 mM or less.

The next assay deals with Escherichia Coli Juhl. Description: Mouse protection assay, Escherichia Coli Juhl. The assay is classed as in vivo. The settings on record: mice infected with lethal dose of Escherichia Coli Juhl. The protocol:
(§1) Antibacterial activity of the compounds were tested in a mouse protection assay against Escherichia Coli Juhl, Serratia marcescens and the gram positive bacterium Staphylococcus aureus.

The subject of a further assay is Serratia marcescens. The assay can be described thus: Mouse protection assay, Serratia marcescens. Conditions: mice infected with lethal dose of Serratia marcescens. The assay is classed as in vivo. The protocol: as §1

Sequence of CMP-KDO synthetase (P04951 whole entry): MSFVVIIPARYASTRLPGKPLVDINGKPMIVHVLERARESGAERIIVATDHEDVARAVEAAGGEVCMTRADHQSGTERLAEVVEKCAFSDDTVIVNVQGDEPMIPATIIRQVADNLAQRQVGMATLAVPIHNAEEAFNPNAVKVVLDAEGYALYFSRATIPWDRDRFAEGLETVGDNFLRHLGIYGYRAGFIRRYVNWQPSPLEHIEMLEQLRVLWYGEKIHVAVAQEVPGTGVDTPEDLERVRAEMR

As for `NC[C@@H](O)[C@H]1OC(O)(C(=O)O)C[C@@H](O)[C@H]1O` (stereo partly drawn) [Example 1, 8-Amino-3,8-dideoxy-D-manno-2-octulosonate], the IC50 on CMP-KDO synthetase was found to be 310 µM. The ED50 in the assay with Escherichia Coli Juhl came out at 25 mg/kg; in the assay with Serratia marcescens, 30 mg/kg. Taken in the same sequence, the figures for `NC[C@@H](O)[C@H]1O[C@H](C(=O)O)C[C@@H](O)[C@H]1O` [Example 2, α-C-[1,5-anhydro-7-amino-2,7-dideoxy-D-manno-heptopyranosyl]-carboxylate] were 7 µM, 3.1 mg/kg and 6.3 mg/kg. Taken in the same sequence, the figures for `NCC(=O)NCC(=O)NC[C@@H](O)[C@H]1O[C@H](C(=O)O)C[C@@H](O)[C@H]1O` [Example 3, α-C-[1,5-anhydro-7-(glycyl-glycylamino)-2,7-dideoxy-D-manno-heptopyranosyl]-carboxylate] were 230 µM, 6.3 mg/kg and 12.5 mg/kg. As for `CNC[C@@H](O)[C@H]1OC(O)(C(=O)O)C[C@@H](O)[C@H]1O` (stereo partly drawn) [Example 4, 8-Methylamino-3,8-dideoxy-D-manno-2-octulosonate], the IC50 on CMP-KDO synthetase stood at 81 µM. Same read-out and setting: as for `CN(C)C[C@@H](O)[C@H]1OC(O)(C(=O)O)C[C@@H](O)[C@H]1O` (stereo partly drawn) [Example 5, 8-Dimethylamino-3,8-dideoxy-D-manno-2-octulosonate], the figure is 220 µM; as for `CCNC[C@@H](O)[C@H]1OC(O)(C(=O)O)C[C@@H](O)[C@H]1O` (stereo partly drawn) [Example 6, 8-Ethylamino-3,8-dideoxy-D-manno-2-octulosonate], 70 µM. For `NCC[C@@H](O)[C@H]1O[C@H](C(=O)O)C[C@@H](O)[C@H]1O` [Example 7, α-C-[1,5 Anhydro-8-amino-2,7,8-trideoxy-D-mannooctopyranosyl] carboxylate], the IC50 on CMP-KDO synthetase (pH 9.5, 2 mM KDO, 5 mM magnesium cytidine triphosphate, inorganic pyrophosphatase, read-out: I50) came to 1.9 µM.
